Laboratory results from paper PMC2673918 (Journal of natural products, 2009).

How the values were obtained:
[1] = system: chymotrypsin; assay: chymotrypsin inhibition; type: biochemical; details: at concentrations up to 100 µg/mL
[2] = system: trypsin; assay: trypsin inhibition; type: biochemical; details: at concentrations up to 100 µg/mL

Anabaenopeptin 908 [Compound 3]
chymotrypsin inhibition (qualitative) [1]: did not observe trypsin/chymotrypsin inhibition | trypsin inhibition (qualitative) [2]: did not observe trypsin/chymotrypsin inhibition

Anabaenopeptin 915 [Compound 4]
chymotrypsin inhibition (qualitative) [1]: did not observe trypsin/chymotrypsin inhibition | trypsin inhibition (qualitative) [2]: did not observe trypsin/chymotrypsin inhibition
